This series is described as follows: solvent given as SMILES.
[1] abbreviates: in c1cc(-n2c3ccccc3c3ccccc32)cc(-n2c3ccccc3c3ccccc32)c1.

We go through 47 compounds from the Deep4Chem optical property database.

For the compound `Brc1ccc(-c2pc3ccccc3s2)cc1` (stereo not drawn), under “in CC#N”, the emission maximum was determined as 439 nm.

As to `Clc1ccc(/C=C(\c2ccccc2)c2nc3ccccc3s2)cc1`, the emission maximum reads like this: (in C1CCCCC1) 420 nm; (in CO) 430 nm.

Consider `CC1=[N+]2C(=Cc3c4c(cn3[B-]2(F)F)-c2nc-4c(-c3ccccc3)c3ccc([nH]3)c(-c3ccccc3)c3nc(c(-c4ccccc4)c4ccc([nH]4)c2-c2ccccc2)C=C3)C(C)C1` (stereo not drawn), for which, for the setting “in ClCCl”, the emission maximum is 693 nm.

In the case of `COc1cc2cc(/C=C/c3ccc(/C=C(\C#N)C(=O)O)cc3)c(=O)oc2cc1OC`, the emission maximum (in CC#N) was determined as 483 nm.

For `COc1nc(Cl)nc(Nc2ccc3c4cccc5cccc(c6cccc2c63)c54)n1`, the emission maximum amounted to 479 nm (in C1COCCO1), 482 nm (in CC#N), 477 nm (in CCCCOCCCC) and 477 nm (in CCOC(C)=O).

Regarding `Cc1cc(C)c([B-]2(c3c(C)cc(C)cc3C)[O+]=P(c3ccccc3)(c3ccccc3)c3cc(C#Cc4ccccc4)sc3-c3sc(C#Cc4ccccc4)cc32)c(C)c1`, under “in C1CCOC1”, the emission maximum is listed as 498 nm.

Regarding `Nc1ccc(/C=C/c2ccccc2)cc1`, the emission maximum by setting is: (in CC#N) 423 nm; (in CCCCCC) 380 nm.

The compound `COc1cc2oc(=O)c3c4ccc(N(C)C)cc4c4ccc5cccc6c(c1)c2c3c4c56` came in with an emission maximum (in C1CCOC1) of 577 nm.

The compound `c1ccc2c(c1)OP1(=NP3(=NP(Oc4ccc5ccc6cccc7ccc4c5c67)(Oc4ccc5ccc6cccc7ccc4c5c67)=N1)Oc1ccccc1-c1ccccc1O3)Oc1ccccc1-2` registered an emission maximum (in ClCCl) of 463 nm.

The compound `CCCCCCCCCCCCCCCCCCOc1ccc(C#Cc2cc3nc4c(OCCCCCCCCCCCC)cc5c6cc(OCCCCCCCCCCCC)c(OCCCCCCCCCCCC)cc6c6cc(OCCCCCCCCCCCC)c(OCCCCCCCCCCCC)cc6c5c4nc3cc2C#Cc2ccc(OCCCCCCCCCCCCCCCCCC)cc2)cc1` displayed an emission maximum (in ClC(Cl)Cl) of 660 nm.

Regarding `O=C(c1ccccc1)c1cc2ccc1CCc1ccc(c(-c3ccc(N(c4ccccc4)c4ccccc4)cc3)c1)CC2`, the emission maximum runs as follows: (in Cc1ccccc1) 455 nm; under setting [1], 468.87 nm.

`COc1ccc(N(c2ccc(OC)cc2)c2ccc(-c3ccc(-c4ccc(-c5ccc(-c6ccc(N(c7ccc(OC)cc7)c7ccc(OC)cc7)cc6)s5)c5nsnc45)s3)cc2)cc1` returned an emission maximum (in ClC(Cl)Cl) of 710 nm.

For the compound `Cn1c2ccc(S(=O)(=O)O)cc2c(=O)c2cc(S(=O)(=O)O)ccc21`, the emission maximum (in CS(C)=O) is on record as 424 nm and the emission maximum (in O) is 433 nm.

Turning to `CCCCC(CC)Cn1c2cc(C#N)ccc2c2ccc(C#Cc3cc(C#Cc4ccc5c6ccc(C#N)cc6n(CC(CC)CCCC)c5c4)c4ccc5c(C#Cc6ccc7c8ccc(C#N)cc8n(CC(CC)CCCC)c7c6)cc(C#Cc6ccc7c8ccc(C#N)cc8n(CC(CC)CCCC)c7c6)c6ccc3c4c65)cc21` (stereo not drawn), the emission maximum (in ClCCl) is 486 nm.

The compound `N#C/C(=C\c1ccc(Cl)cc1)c1nc(-c2ccccc2)c(-c2ccccc2)s1` registered an emission maximum (in CC#N) of 501 nm.

`COc1cc2c(cc1OC)C1=C[C@H](c3ccc(Cl)cc3)C3(C(C#N)=C(C#N)N1CC2)c1cc(Br)ccc1-c1ccc(Br)cc13`: the emission maximum (in ClCCl) came to 420 nm.

`COc1ccc(-c2cc3c(ccc4sc5ccc6sc(-c7ccc(C#N)cc7)cc6c5c43)s2)cc1`: where the note is “in ClCCl”, the emission maximum is reported as 469 nm.

For `c1ccc2c(-c3ccc4sc5ccccc5c4c3)c3ccccc3cc2c1`, the emission maximum is, setting by setting: (in C1CCCCC1) 399.14 nm; (in CC#N) 404.15 nm; (in ClCCl) 405.52 nm.

The compound `CC1=CC(C)=[N+]2C1=C(c1ccccc1)c1c(C)cc(/C=C/c3ccccc3)n1[B-]2(F)F` returned an emission maximum (in CC#N) of 569 nm.

As to `CN(C)c1ccc(-c2cc3c(s2)c(C(=O)c2ccccc2)cc(=O)n3Cc2ccccc2)cc1`, the emission maximum is, setting by setting: (in CC#N) 521 nm; (in ClCCl) 678 nm.

For the compound `O=c1ccc2cc3c(cc2o1)OCC3`, the emission maximum is 400 nm (in CC(C)O); 402 nm (in CCO); 397 nm (in CCOCC); 405 nm (in CO); 410 nm (in O).

`N#Cc1cccc2[nH]ccc12`: the emission maximum stood at 371 nm (in C1CCOC1); 369 nm (in C1COCCO1); 380 nm (in CC#N); 385 nm (in CC(C)O); 387 nm (in CCO); 390 nm (in CO). In addition, the emission maximum was found to be 392 nm (in CS(C)=O), 405 nm (in O) and 394 nm (in OCC(F)(F)F).

The compound `c1cc2c3c4c5c(cccc5cc3c1)-c1cccn1B4n1cccc1-2` had an emission maximum (in C1CCOC1) of 601 nm.

As for `O=Cc1ccc(-c2ccc(-c3nc4ccccc4s3)c(O)c2)o1`, the emission maximum (in CCO) is recorded as 530 nm, the emission maximum (in ClCCl) is 526 nm and the emission maximum (in O) came out at 563 nm.

`COc1ccc(N2c3sc4ccccc4c3Sc3sc4ccccc4c32)cc1`: the emission maximum (in ClCCl) is 562 nm.

Regarding `Cc1ccc(C2=C3C=CC(C#Cc4ccccc4)=[N+]3[B-](F)(F)n3c(Cl)ccc32)cc1`, the emission maximum runs as follows: (in C1CCCCC1) 575 nm; (in C1CCOC1) 573 nm; (in C1COCCO1) 575 nm; (in CCOC(C)=O) 571 nm; (in CO) 569 nm; (in Cc1ccccc1) 577 nm. The compound further registered an emission maximum (in ClC(Cl)Cl) of 577 nm.

Compound `COc1ccc2c(c1)-c1cc3c(cc1[Si]2(c1ccccc1)c1ccccc1)-c1ccccc1[Si]3(c1ccccc1)c1ccccc1` came in with an emission maximum (in ClCCl) of 397 nm.

For `Clc1ccc(/C=C/c2nc3ccccc3o2)cc1`, the emission maximum is, setting by setting: (in C1CCCCC1) 380 nm; (in CO) 385 nm.

`c1ccc(-c2ncc3ccccn23)cc1` came in with an emission maximum (in ClC(Cl)Cl) of 461 nm.

Compound `CC[N+]1(CC)CN2C(=N1)C(C(=O)O)=Cc1cc(C)ccc12` returned an emission maximum (in O) of 469 nm.

The compound `COc1ccc(C2=C(c3ccc(OC)cc3)C(C)(C)c3cc(OC)ccc32)cc1` registered an emission maximum (in C1CCCCC1) of 398 nm.

In turn, `CC(C)(C)c1cc2c3c(c1)-c1cccc4c1N(B3N1c3ccccc3Sc3cccc-2c31)c1ccccc1S4` came in with an emission maximum (in C1CCOC1) of 731 nm.

In the case of `COC(=O)c1c2ccccc2nc2ccccc12`, the emission maximum is, setting by setting: (in C1CCOC1) 418 nm; (in C1COCCO1) 420 nm; (in CC#N) 422 nm; (in CCCCCO) 432 nm; (in CCCCO) 431 nm; (in CCCO) 430 nm. In addition, the emission maximum turned out to be 432 nm (in CCO); 432 nm (in CO); 420 nm (in COCCOC); 428 nm (in ClC(Cl)Cl); 422 nm (in ClCCl); 418 nm (in OCCO).

As for `Cc1ccc2c3ccc(C)cc3c3cc4c(C)cc(=O)oc4cc3c2c1`, the emission maximum (in ClC(Cl)Cl) came out at 422 nm.

With `O=S1(=O)c2ccccc2C2(c3cc(-c4ccc(-n5c6ccccc6c6ccccc65)cc4)ccc3-c3ccc(-c4ccc(-n5c6ccccc6c6ccccc65)cc4)cc32)c2ccccc21`, the emission maximum reads like this: (in ClCCl) 427 nm; under setting [1], 412 nm.

For `C=CCNc1ccc2c(ccc3oc4cc(=[N+](C)C)ccc-4nc32)c1`, the emission maximum (in CC#N) is recorded as 654 nm, the emission maximum (in CCO) stood at 650 nm, the emission maximum (in ClCCl) is on record as 645 nm and the emission maximum (in O) was determined as 660 nm.

For the setting “in ClCCl”, `C(=C\c1cc(-c2ccccc2)c(/C=C/c2ccc(N(c3ccccc3)c3ccccc3)cc2)cc1-c1ccccc1)/c1ccc(N(c2ccccc2)c2ccccc2)cc1` returned an emission maximum of 495 nm.

As for `FC(F)(F)C(F)(F)C(F)(F)C1=NC2=C(Sc3ccccc3)C=C3c4cc(Sc5ccccc5)c5nc(C(F)(F)C(F)(F)C(F)(F)F)nc6c(Sc7ccccc7)cc(c4c56)=C4C=C(Sc5ccccc5)C(=N1)C2C34` (stereo not drawn), where the note is “in C1CCOC1”, the emission maximum was 606 nm.

In turn, `CCN(CC)c1ccc2cc(C#N)/c(=N\C(=O)c3ccc(C)cc3)oc2c1` returned an emission maximum (in CCO) of 530 nm and an emission maximum (in ClCCl) of 502 nm.

As for `CCCCN(CCCC)c1ccc2c#cc3cc4c#cc5ccc(C(F)(F)F)cc5c#cc#cc5cc(C(F)(F)F)ccc5c#cc4cc3c#cc3ccc(N(CCCC)CCCC)cc3c#cc#cc2c1`, the emission maximum is, setting by setting: (in ClCCl) 554 nm; (in c1ccccc1) 504 nm.

With `C1=CC2=Nc3cccc[n+]3CN2C=C1`, the emission maximum (in CO) was determined as 448 nm.

On to `C(=C\c1ccc(Nc2ccccc2)cc1)/c1ccccc1`, for which the emission maximum by setting is: (in CC#N) 436 nm; (in CCCCCC) 378 nm.

For the compound `CCCCN(CCCC)c1ccc(C#Cc2cc(C#Cc3c(F)c(F)c(F)c(F)c3F)c(C#Cc3ccc(N(CCCC)CCCC)cc3)cc2C#Cc2c(F)c(F)c(F)c(F)c2F)cc1`, the emission maximum reads like this: (in ClCCl) 563 nm; (in c1ccccc1) 534 nm.

On to `N#Cc1c(-n2c3ccccc3c3ccccc32)c(F)c(-n2c3ccccc3c3ccccc32)c(-n2c3ccccc3c3ccccc32)c1-n1c2ccccc2c2ccccc21`, for which the emission maximum (in Cc1ccccc1) worked out at 453 nm and the emission maximum (in c1ccc([Si](c2ccccc2)(c2ccc(-n3c4ccccc4c4ccccc43)cc2)c2ccc(-n3c4ccccc4c4ccccc43)cc2)cc1) stood at 470 nm.

In the case of `COc1cc2c3cc(OC)c(OC)cc3c3cc4c(C)cc(=O)oc4cc3c2cc1OC`, the emission maximum runs as follows: (in C1CCOC1) 489 nm; (in CO) 556 nm; (in CS(C)=O) 519 nm; (in Cc1ccccc1) 463 nm; (in ClC(Cl)Cl) 491 nm.

As to `F[B-]1(F)n2c(c3ccccc3c2-c2ccccc2)C=C2c3ccccc3C(c3ccccc3)=[N+]21`, the emission maximum runs as follows: (in C1CCOC1) 662 nm; (in ClCCl) 658 nm.

`N#Cc1cc(/C=C/c2ccc(/C=C/c3ccc(N(c4ccccc4)c4ccccc4)cc3)c(C#N)c2)ccc1/C=C/c1ccc(N(c2ccccc2)c2ccccc2)cc1`: the emission maximum (in ClCCl) was determined as 577 nm.
